Earlier results on two compounds are cited in patent US9440985B2, “Tricyclic derivatives of N,N′-substituted 3,7-diazabicyclo [3.3.1]nonanes and drugs based thereon” (priority 2011, dated 2016).

SMILES strings stand for the structures.

For data set [1], the system named is AMPA receptors. Particulars: adult rats; 0.3-3 mg/kg.
For data set [2], the system named is AMPA receptors. The following applies: high concentrations.
Data set [3] deals with AMPA receptors.

With `O=C(c1ccc2c(c1)OCCO2)N1CCCCC1` [CX546], the social memory entry with AMPA receptors [1] is “improves social memory”.

Regarding `COc1ccc(C(=O)N2CCCC2=O)cc1` [aniracetam], the “concentration at which the clinical effect is manifested” value in the data set on AMPA receptors [2] is 0.1 mM. Further, the NMDA-mediated signals entry with AMPA receptors [3] is on record as “no effect”. In addition, the synaptic signal result in the data set on AMPA receptors [3] (several hippocampus sites) is listed as “enhances the synaptic signal”.
